Experimental data as given in patent US12044651B2, “Sensor device and methods” (SCENTIAN BIO LIMITED, priority 2016, dated 2024).

Target: T1, OR35a (Drosophila melanogaster, UniProt Q9V3Q2)
T1 sequence (Q9V3Q2 1-409): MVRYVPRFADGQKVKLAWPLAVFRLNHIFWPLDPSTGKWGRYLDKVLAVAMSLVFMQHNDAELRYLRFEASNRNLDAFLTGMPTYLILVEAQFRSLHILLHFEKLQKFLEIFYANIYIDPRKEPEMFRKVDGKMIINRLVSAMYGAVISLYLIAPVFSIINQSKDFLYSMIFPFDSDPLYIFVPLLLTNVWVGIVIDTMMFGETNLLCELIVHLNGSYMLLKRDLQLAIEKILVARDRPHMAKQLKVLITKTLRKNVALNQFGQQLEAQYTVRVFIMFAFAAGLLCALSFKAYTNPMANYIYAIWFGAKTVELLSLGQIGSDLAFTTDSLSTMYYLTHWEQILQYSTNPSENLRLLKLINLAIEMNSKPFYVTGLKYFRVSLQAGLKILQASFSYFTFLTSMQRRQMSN
Test: CNT-FET sensor covalently functionalized with Or35a nanodiscs (Example 3)
Type: binding
Protocol: The dispersion was sonicated until a clear solution was obtained. The temperature was kept at 25° C. throughout the sonication process. The thiolpyridine solution was prepared by dissolving 10 mg of 2-Mercaptopyridine (99%, Sigma Aldrich) in 1 ml of methanol. The solution was spun coated on a polydimethylsiloxane (PDMS) surface at 2000 rpm for one minute. Before the spin coating process, the PDMS surface was cleaned by a 50 W Oxygen plasma for 1 minute to improve the wettability. The cleaned substrates were placed upside down on the PDMS surface for three minutes and washed in ethanol to remove the excess thiolpyridine molecules. Then the substrates were transferred into the CNT suspension and immersed into the suspension for 10 minutes. The samples were removed from the suspension and dipped into Ethanol for another 10 minutes to remove the thiolpyridine molecules in the SWNT network. The alignment markers were deposited by defining the markers by photolithography and thermal evaporation of 5 nm Chromium and 50 nm of Gold. The metal Lift off was done by acetone immersion for 15 minutes followed by an Isopropyl alcohol (IPA) wash and N2 blow dry. The result is a uniform thin film CNT network covering the entire substrate surface. The purification procedure is a variation on the one detailed in […] et al. 2013^14. […] Purity was assessed on Coomassie stained SDS-PAGE gels and Western blotting. […]

## CCC/C=C/C=O [E2-hexenal]
Nanodiscs 1:100 dilution
  limit of detection: below 1 fM
Real time current measurement mode
  concentration at which clear electronic response starts: 1 fM
